Assay results as given in paper PMC6299835 (Toxicon : official journal of the International Society on …, 2018).
No end group written: not given here.

Legend:
human MrgprX1 (hMrgprX1) = human MrgprX1 (hMrgprX1) (Homo sapiens, UniProt Q96LB2); assay: cell-based; format: cell-based
[1] = tested on: hMrgprX1;Mrgpr-cluster∆−/− transgenic mouse; conditions: in vivo

human MrgprX1 (hMrgprX1), sequence (Q96LB2 whole entry, looked up): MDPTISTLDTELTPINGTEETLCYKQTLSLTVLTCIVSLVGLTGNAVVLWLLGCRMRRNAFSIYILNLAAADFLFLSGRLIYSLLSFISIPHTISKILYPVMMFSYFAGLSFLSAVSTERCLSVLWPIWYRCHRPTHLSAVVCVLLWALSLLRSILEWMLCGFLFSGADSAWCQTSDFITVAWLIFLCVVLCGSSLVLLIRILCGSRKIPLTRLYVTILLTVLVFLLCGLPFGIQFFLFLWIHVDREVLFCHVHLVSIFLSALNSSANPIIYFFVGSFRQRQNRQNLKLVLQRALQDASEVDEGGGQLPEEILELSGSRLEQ

WSGPRNRFVRF-NH2 [CNF-Vc1(7–18)] was tested, and the “Activation of hMrgprX1” value (human MrgprX1 (hMrgprX1)) was “can activate”.
For HSGILLAWSGPRNRFVRI-NH2 [CNF-Tx2], the “Activation of hMrgprX1” value (human MrgprX1 (hMrgprX1)) was “activates”, the EC50 (human MrgprX1 (hMrgprX1)) was 540 nM and the “Potency in activating hMrgprX1 relative to CNF-Vc1” value (human MrgprX1 (hMrgprX1)) was “at least threefold more potent”. The “Itch-related scratching after intradermal cheek injection of peptide” value [1] was “induces significant scratching”.
